According to patent US20100173873A1, “TREATMENT OF METASTASIZED TUMORS” (Novartis Vaccines and Diagnostics, Inc., priority 2005, published 2010):
“And” between values parts separate entries of the source, which are not always exact repeats. Equal entries are not always repeated. “Also recorded” adds a separate entry of the source. Where two headings read alike, the source gives them in different places.

Legend:
PI-3K = assay: In vitro kinase assay, PI-3K; type: biochemical; settings: RTK table
pFLT3 in MV4;11 tumors = assay: Target modulation in vivo, pFLT3 in MV4;11 tumors; design: species or system SCID-NOD mice; settings: 10 mg/kg/d p.o., 48 hours post dose
MV4;11 tumors [1] = assay: Subcutaneous MV4;11 xenograft model; type: in vivo, SCID-NOD mice
RS4;11 tumors = assay: Subcutaneous RS4;11 xenograft model; type: in vivo, SCID-NOD mice; settings: RS4;11 s.c., 10-150 mg/kg/d p.o.
Experimental: . Animals received sterile rodent chow and water ad libitum and were housed in sterile filter-top cages with 12 hour light/dark cycles. All experiments were under the guidelines of the Association for Assessment and Accreditation of Laboratory Animal Care International.
Cells (5×10^6 cells/mouse) were reconstituted with 50% Matrigel (Becton Dickinson) and implanted s.c. into the right flank of SCID-NOD mice. Treatments were initiated when tumors were 200-1000 mm^3, as outlined in specific study designs. Mice were randomly assigned into cohorts (typically 10 mice/group for efficacy studies and 3-5 mice/group for pharmacodynamic (PD) studies). Compound 1 was administered as a solution via oral gavage. […] . […] Response rates were defined as complete responses CR (no palpable tumor) or partial responses PR (50-99% shrinkage) compared to tumor volume at treatment initiation.

[2] = system: MV4;11 cells disseminated to bone marrow; assay: Intravenous MV4;11 bone marrow engraftment model; type: in vivo, SCID-NOD mice
Experimental: For processing of bone marrow (BM) cells from the mouse MV4;11 engraftment model, femurs were purged with cold saline and red blood cells lysed with FACS lysis buffer (Becton Dickinson). Percent engraftment of human leukemic cells in mouse BM was determined by staining with anti-human HLA-A,B,C-FITC (vs. isotype-matched antibody-FITC control) (BD Pharmingen).
[…]. […] Mice were monitored daily and were euthanized when moribund or early signs of loss of hind limb motility. Increased life span (ILS) of treated mice was calculated as a percent increase in median survival time (MST) vs. vehicle treated control mice.
[…]. In this model, MV4;11 cells disseminate to the bone marrow (BM), pathologically mimicking a disease pattern similar to human leukemia. […]. Histological analyses and flow cytometry were used to quantify the % engraftment of MV4;11 cells in BM. In flow cytometric analyses, human MV4;11 cells were identified in mouse BM with an anti-human HLA-A,B,C antibody which binds to an epitope on human MHCI. In vehicle-treated mice, approximately 2-19% of total isolated BM cells consisted of engrafted MV4;11 cells (day 51,). This was also corroborated by immunohistochemistry with an antibody to human mitochondria which stains MV4;11 cells identifying the human cells in the mouse BM matrix. […].

4T1 murine breast tumor = 4T1 murine breast tumor model (primary tumor, liver and lung metastases); type: in vivo, BALB/c mice; settings: for Liver # of Metastases Mean ± SD / Lung # of Metastases Mean ± SD: after 17 days of dosing
P-glycoprotein = P-glycoprotein (Homo sapiens, UniProt P08183); assay: P-glycoprotein substrate status; type: in vitro ADME
P-glycoprotein, sequence (P08183 whole entry): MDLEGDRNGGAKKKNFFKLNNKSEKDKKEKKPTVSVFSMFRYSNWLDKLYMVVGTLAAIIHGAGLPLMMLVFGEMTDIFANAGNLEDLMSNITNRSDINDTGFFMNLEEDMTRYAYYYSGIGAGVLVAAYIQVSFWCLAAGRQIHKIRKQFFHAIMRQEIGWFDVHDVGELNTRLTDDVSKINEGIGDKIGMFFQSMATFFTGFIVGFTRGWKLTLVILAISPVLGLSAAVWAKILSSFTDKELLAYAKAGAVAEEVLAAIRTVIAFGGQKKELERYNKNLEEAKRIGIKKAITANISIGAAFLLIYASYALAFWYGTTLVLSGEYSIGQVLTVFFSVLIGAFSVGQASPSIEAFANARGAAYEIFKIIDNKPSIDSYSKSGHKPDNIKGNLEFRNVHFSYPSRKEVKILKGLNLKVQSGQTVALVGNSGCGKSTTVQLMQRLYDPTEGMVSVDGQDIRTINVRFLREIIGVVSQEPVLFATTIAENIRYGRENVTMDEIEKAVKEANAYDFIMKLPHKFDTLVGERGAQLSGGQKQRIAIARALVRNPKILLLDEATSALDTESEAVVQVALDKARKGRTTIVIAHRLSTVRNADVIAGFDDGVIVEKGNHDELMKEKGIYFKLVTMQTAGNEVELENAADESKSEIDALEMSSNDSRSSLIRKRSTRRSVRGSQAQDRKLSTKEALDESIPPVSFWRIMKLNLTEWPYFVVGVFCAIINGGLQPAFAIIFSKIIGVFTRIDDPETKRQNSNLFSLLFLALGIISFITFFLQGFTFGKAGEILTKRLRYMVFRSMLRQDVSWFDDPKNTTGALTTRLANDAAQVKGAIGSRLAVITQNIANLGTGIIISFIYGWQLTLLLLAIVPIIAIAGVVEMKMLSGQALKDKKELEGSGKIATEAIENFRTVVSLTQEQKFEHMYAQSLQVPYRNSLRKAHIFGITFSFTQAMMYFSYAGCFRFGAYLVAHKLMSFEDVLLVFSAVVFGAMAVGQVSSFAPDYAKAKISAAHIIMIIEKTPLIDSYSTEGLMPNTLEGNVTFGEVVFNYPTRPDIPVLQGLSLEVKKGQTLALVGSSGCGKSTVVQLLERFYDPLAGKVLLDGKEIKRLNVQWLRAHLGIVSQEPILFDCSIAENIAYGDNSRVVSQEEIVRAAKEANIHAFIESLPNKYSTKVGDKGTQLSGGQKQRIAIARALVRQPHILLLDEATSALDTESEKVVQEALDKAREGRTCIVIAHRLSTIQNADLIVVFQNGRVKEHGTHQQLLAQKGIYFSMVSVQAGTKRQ

MV4;11 tumors [3] = settings: 30 mg/kg/d
pSTAT5 in MV4;11 tumors = assay: Target modulation in vivo, pSTAT5 in MV4;11 tumors; settings: Mus musculus, MV4-11, po
pERK in MV4;11 cells = pERK in MV4;11 cells (flow cytometry, Western blot); settings: Homo sapiens, MV4-11, 3 h, read-out: Inhibition of pERK
[4] = MV4;11 s.c., 30 mg/kg/d p.o., dose-response study

CN1CCN(c2ccc3nc(-c4c(N)c5c(F)cccc5[nH]c4=O)[nH]c3c2)CC1 [Compound 1, 4-Amino-5-fluoro-3-[6-(4-methylpiperazin-1-yl)-1H-benzimidazol-2-yl]quinolin-2(1H)-one]
IC50 (PI-3K): > 10 µM
Phospho-FLT3 in tumors (pFLT3 in MV4;11 tumors): returned closer to baseline levels
Complete responses (CR) (MV4;11 tumors [1]; MV4;11 s.c., 30 mg/kg p.o. daily, schedule study (FIG. 4)): 1
Tumor growth inhibition (TGI) (MV4;11 tumors [1]; MV4;11 s.c., 30 mg/kg p.o., intermittent dosage regimens): > 94%
Complete responses (CR) (MV4;11 tumors [1]; [4]): 1
Tumor responses (MV4;11 tumors [1]; [4]): 9/10
Doses with significant tumor growth inhibition (MV4;11 tumors [1]; MV4;11 s.c., p.o., FIG. 2): > 5 mg/kg/day
Minor responses or stable (MV4;11 tumors [1]; large MV4;11 tumors 300, 500 or 1000 mm^3, 30 mg/kg/d, n=27): 15%
Complete responses durable for 40 days after cessation of dosing (MV4;11 tumors [1]; large MV4;11 tumors, 30 mg/kg/d for 50 days): One CR
Regression of large MV4;11 tumors (MV4;11 tumors [1]; tumors staged at 300, 500 or 1000 mm^3, 30 mg/kg/d): significant regression in all MV4;11 tumors; also recorded: induces regression of large MV4;11 tumors
Tumor regressions (RS4;11 tumors): no regressions were observed
Survival (Kaplan-Meier, FIG. 6) ([2]; 20 mg/kg daily or 7 days on/7 days off): prolongs survival
Median survival time (MST) ([2]; 20 mg/kg p.o. 7 days on/7 days off, 5 cycles): 118 days
Increased life span (ILS) ([2]; 20 mg/kg p.o. 7 days on/7 days off, 5 cycles, vs. vehicle): 131%
Long-term survivors (MST >160 days) ([2]; 20 mg/kg p.o. daily): 4 mice
Median survival time (MST) ([2]; 20 mg/kg p.o. daily, day 23-100): 134 days
Tumor cells in BM of surviving mice (anti-human mitochondria IHC) ([2]; day 167): no evidence of tumor cells
Mean Tumor Volume day 18 (4T1 murine breast tumor; 10 mg/kg p.o. once daily): 1798 mm^3
Treated/Control day 18 (4T1 murine breast tumor; 10 mg/kg p.o. once daily): 0.80
Max % Inhibition (study day), primary tumor growth (4T1 murine breast tumor; 10 mg/kg p.o. once daily, d 11): 32% and 32 (d 11) %
Liver # of Metastases Mean ± SD (4T1 murine breast tumor; 10 mg/kg): 22 ± 32
Lung # of Metastases Mean ± SD (4T1 murine breast tumor; 10 mg/kg): 36 ± 32
Mean Tumor Volume day 18 (4T1 murine breast tumor; 30 mg/kg p.o. once daily): 1246 mm^3
Treated/Control day 18 (4T1 murine breast tumor; 30 mg/kg p.o. once daily): 0.55
Max % Inhibition (study day), primary tumor growth (4T1 murine breast tumor; 30 mg/kg p.o. once daily, d 18): 45% and 45 (d 18) %
Liver # of Metastases Mean ± SD (4T1 murine breast tumor; 30 mg/kg): 3 ± 4
Lung # of Metastases Mean ± SD (4T1 murine breast tumor; 30 mg/kg): 26 ± 26
Mean Tumor Volume day 18 (4T1 murine breast tumor; 60 mg/kg p.o. once daily): 1248 mm^3
Treated/Control day 18 (4T1 murine breast tumor; 60 mg/kg p.o. once daily): 0.56
Max % Inhibition (study day), primary tumor growth (4T1 murine breast tumor; 60 mg/kg p.o. once daily, d 11): 50% and 50 (d 11) %
Liver # of Metastases Mean ± SD (4T1 murine breast tumor; 60 mg/kg): 1 ± 1
Lung # of Metastases Mean ± SD (4T1 murine breast tumor; 60 mg/kg): 24 ± 11
Mean Tumor Volume day 18 (4T1 murine breast tumor; 100 mg/kg p.o. once daily): 624 mm^3
Treated/Control day 18 (4T1 murine breast tumor; 100 mg/kg p.o. once daily): 0.28
Max % Inhibition (study day), primary tumor growth (4T1 murine breast tumor; 100 mg/kg p.o. once daily, d 14): 74% and 74 (d 14) %
Liver # of Metastases Mean ± SD (4T1 murine breast tumor; 100 mg/kg): 4 ± 13
Lung # of Metastases Mean ± SD (4T1 murine breast tumor; 100 mg/kg): 24 ± 30
Mean Tumor Volume day 18 (4T1 murine breast tumor; 150 mg/kg p.o. once daily): 402 mm^3
Treated/Control day 18 (4T1 murine breast tumor; 150 mg/kg p.o. once daily): 0.18
Max % Inhibition (study day), primary tumor growth (4T1 murine breast tumor; 150 mg/kg p.o. once daily, d 18): 82% and 82 (d 18) %
Liver # of Metastases Mean ± SD (4T1 murine breast tumor; 150 mg/kg): 0 ± 0
Lung # of Metastases Mean ± SD (4T1 murine breast tumor; 150 mg/kg): 2 ± 3
Reduction of number of liver tumor nodules versus controls (4T1 murine breast tumor; 30, 60 and 100 mg/kg treatments): ≥ 77%
P-GP substrate status (P-glycoprotein): not a P-GP substrate
Phospho-ERK immunohistochemical staining (MV4;11 tumors [3]; 5-day dosing period): significantly lowered
Ki67 staining (proliferation) (MV4;11 tumors [3]; after 5 doses): reduced Ki67 staining
Apoptosis (activated caspase-3, cleaved PARP staining) (MV4;11 tumors [3]; day 5): increased activated caspase-3 and cleaved PARP staining
inhibition at 10 mg/kg (pSTAT5 in MV4;11 tumors; 8 h, read-out: Inhibition of STAT5 phosphorylation in tumors): ~90%
inhibition at 10 mg/kg (pSTAT5 in MV4;11 tumors; 24 h, read-out: Inhibition of STAT5 phosphorylation in tumors): ~85%
inhibition at 10 mg/kg (pSTAT5 in MV4;11 tumors; 48 h, read-out: Inhibition of p-STAT5 in tumors): ~60%
inhibition at 0.1 µM (pERK in MV4;11 cells): > 50%
